Results published in patent US20190134005A1 (BioMarin Pharmaceutical Inc., priority 2016, published 2019).

The compounds below were run against T1, human CGT (Homo sapiens, UniProt Q16880) (assay: Assay 1: CGT Enzymatic Assay (RapidFire/MS/MS, 0.01% Tween 80)). Conditions: Table 1, Compounds of Formula (I) and Formula (II); CGT enzymatic assay; read-out: IC50.
T1 sequence (Q16880 21-541): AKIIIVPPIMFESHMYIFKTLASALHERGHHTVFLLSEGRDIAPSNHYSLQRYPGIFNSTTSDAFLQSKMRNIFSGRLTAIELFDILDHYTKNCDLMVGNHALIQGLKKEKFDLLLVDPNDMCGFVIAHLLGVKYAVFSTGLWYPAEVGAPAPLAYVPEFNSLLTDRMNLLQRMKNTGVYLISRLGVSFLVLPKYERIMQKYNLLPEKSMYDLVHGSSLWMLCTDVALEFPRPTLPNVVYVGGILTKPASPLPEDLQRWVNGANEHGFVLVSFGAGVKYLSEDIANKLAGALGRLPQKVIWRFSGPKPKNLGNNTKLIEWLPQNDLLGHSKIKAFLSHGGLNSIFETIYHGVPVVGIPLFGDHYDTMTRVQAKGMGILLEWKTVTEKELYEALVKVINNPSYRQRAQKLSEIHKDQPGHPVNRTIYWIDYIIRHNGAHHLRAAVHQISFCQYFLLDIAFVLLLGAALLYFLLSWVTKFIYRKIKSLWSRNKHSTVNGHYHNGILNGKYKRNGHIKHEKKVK
Type: biochemical

IC50 [µM]	SMILES
< 1	CC(C)[C@H]1N(c2ccc(C(F)(F)F)cc2)C(=O)N(c2ccc(C(F)(F)F)cc2)C1(O)c1cccc(OC(F)(F)F)c1 (single isomer, unassigned) [Example 196-2]
10 to 50	Cc1cccc([C@@]2(C)C(O)N(c3ccc(Cl)cc3)C(=O)N2c2ccc(Cl)cc2)c1 (single isomer, unassigned) [Example 222-1]
< 1	Cc1cccc([C@]2(C)C(O)N(c3ccc(Cl)cc3)C(=O)N2c2ccc(Cl)cc2)c1 (single isomer, unassigned) [Example 222-2]
10 to 50	C[C@]1(c2ccccc2)C(O)N(c2ccc(Cl)cc2)C(=O)N1c1ccc(Cl)cc1 (single isomer, unassigned) [Example 223-1]
< 1	C[C@@]1(c2ccccc2)C(O)N(c2ccc(Cl)cc2)C(=O)N1c1ccc(Cl)cc1 (single isomer, unassigned) [Example 223-2]
< 1	CCC1N(c2ccc(Cl)cc2)C(=O)N(c2ccc(Cl)cc2)C1(O)c1cccc(OC(F)(F)F)c1 (stereo in doubt) [Compound 82-1, (5S)-1,3-bis(4-chlorophenyl)-5-ethyl-4-hydroxy-4-(3-(trifluoromethoxy)phenyl)imidazolidin-2-one]
< 1	CCC1N(c2ccc(Cl)cc2)C(=O)N(c2ccc(Cl)cc2)C1(O)c1cccc(OC(F)(F)F)c1 (stereo in doubt) [Compound 82-2, (5R)-1,3-bis(4-chlorophenyl)-5-ethyl-4-hydroxy-4-(3-(trifluoromethoxy)phenyl)imidazolidin-2-one]
< 1	CCC1N(c2ccc(Br)cc2)C(=O)N(c2ccc(Br)cc2)C1(O)c1cccc(OC(F)(F)F)c1 (stereo in doubt) [Compound 83-1, (5S)-1,3-bis(4-bromophenyl)-5-ethyl-4-hydroxy-4-(3-(trifluoromethoxy)phenyl)imidazolidin-2-one]
< 1	CCC1N(c2ccc(Br)cc2)C(=O)N(c2ccc(Br)cc2)C1(O)c1cccc(OC(F)(F)F)c1 (stereo in doubt) [Compound 83-2, (5R)-1,3-bis(4-bromophenyl)-5-ethyl-4-hydroxy-4-(3-(trifluoromethoxy)phenyl)imidazolidin-2-one]
10 to 50	O=C1N(c2ccc(Br)cc2)CC(O)(c2cccnc2)N1c1ccc(Br)cc1 (stereo not shown) [Compound 52, 1,3-bis(4-bromophenyl)-4-hydroxy-4-(pyridin-3-yl)imidazolidin-2-one]
< 1	O=C1N(c2ccc(Br)cc2)CC(O)(c2cccc(OC(F)(F)F)c2)N1c1ccc(Br)cc1 (stereo not shown) [Compound 58, 1,3-bis(4-bromophenyl)-4-hydroxy-4-(3-(trifluoromethoxy)phenyl)imidazolidin-2-one]
1 to 10	CC(C)c1cccc(C2(O)CN(c3ccc(Br)cc3)C(=O)N2c2ccc(Br)cc2)c1 (stereo not shown) [Compound 59, 1,3-bis(4-bromophenyl)-4-hydroxy-4-(3-isopropylphenyl)imidazolidin-2-one]
< 1	C#Cc1cccc(C2(O)CN(c3ccc(Cl)cc3)C(=O)N2c2ccc(Cl)cc2)c1 (stereo not shown) [Compound 60, 1,3-bis(4-chlorophenyl)-4-(3-ethynylphenyl)-4-hydroxyimidazolidin-2-one]
> 50	N#Cc1ccc(C2(O)CN(c3ccc(Br)cc3)C(=O)N2c2ccc(Br)cc2)cc1 (stereo not shown) [Compound 61, 4-(1,3-bis(4-bromophenyl)-4-hydroxy-2-oxoimidazolidin-4-yl)benzonitrile]
< 1	CC1N(c2ccc(Cl)cc2)C(=O)N(c2ccc(Cl)cc2)C1(O)c1cccc(Cl)c1 (stereo not shown) [Compound 62, 4-(3-chlorophenyl)-1,3-bis(4-chlorophenyl)-4-hydroxy-5-methylimidazolidin-2-one]
< 1	N#Cc1cccc(C2(O)CN(c3ccc(Cl)cc3)C(=O)N2c2ccc(Cl)cc2)c1 (stereo not shown) [Compound 63, 3-(1,3-bis(4-chlorophenyl)-4-hydroxy-2-oxoimidazolidin-4-yl)benzonitrile]
1 to 10	O=C1N(c2ccc(Cl)cc2)CC(O)(c2cccc(F)c2)N1c1ccc(Cl)cc1 (stereo not shown) [Compound 64, 1,3-bis(4-chlorophenyl)-4-(3-fluorophenyl)-4-hydroxyimidazolidin-2-one]
< 1	O=c1n(-c2ccc(Cl)cc2)c(-c2cccc(OC(F)(F)F)c2)c(C2CC2)n1-c1ccc(Cl)cc1 [Compound 65, 1,3-bis(4-chlorophenyl)-4-cyclopropyl-5-(3-(trifluoromethoxy)phenyl)-1,3-dihydro-2H-imidazol-2-one]

IC50 [µM]	SMILES
< 1	CC1N(c2ccc(Br)cc2)C(=O)N(c2ccc(Br)cc2)C1(O)c1cccc(OC(F)(F)F)c1 (stereo not shown) [Compound 66, 1,3-bis(4-bromophenyl)-4-hydroxy-5-methyl-4-(3-(trifluoromethoxy)phenyl)imidazolidin-2-one]
< 1	C[C@@H]1N(c2ccc(Br)cc2)C(=O)N(c2ccc(Br)cc2)C1(O)c1cccc(OC(F)(F)F)c1 (stereo partly drawn) [Compound 66-1, (5S)-1,3-bis(4-bromophenyl)-4-hydroxy-5-methyl-4-(3-(trifluoromethoxy)phenyl)imidazolidin-2-one]
< 1	C[C@H]1N(c2ccc(Br)cc2)C(=O)N(c2ccc(Br)cc2)C1(O)c1cccc(OC(F)(F)F)c1 (stereo partly drawn) [Compound 66-2, (5R)-1,3-bis(4-bromophenyl)-4-hydroxy-5-methyl-4-(3-(trifluoromethoxy)phenyl)imidazolidin-2-one]
< 1	CCC1N(c2ccc(Br)cc2)C(=O)N(c2ccc(Br)cc2)C1(O)c1cccc(C(F)(F)F)c1 (stereo not shown) [Compound 67, 1,3-bis(4-bromophenyl)-5-ethyl-4-hydroxy-4-(3-(trifluoromethyl)phenyl)imidazolidin-2-one]
< 1	CC[C@@H]1N(c2ccc(Br)cc2)C(=O)N(c2ccc(Br)cc2)C1(O)c1cccc(C(F)(F)F)c1 (stereo partly drawn) [Compound 67-1, (5S)-1,3-bis(4-bromophenyl)-5-ethyl-4-hydroxy-4-(3-(trifluoromethyl)phenyl)imidazolidin-2-one]
< 1	CC[C@H]1N(c2ccc(Br)cc2)C(=O)N(c2ccc(Br)cc2)C1(O)c1cccc(C(F)(F)F)c1 (stereo partly drawn) [Compound 67-2, (5R)-1,3-bis(4-bromophenyl)-5-ethyl-4-hydroxy-4-(3-(trifluoromethyl)phenyl)imidazolidin-2-one]
< 1	CCc1cccc(C2(O)C(C)N(c3ccc(Br)cc3)C(=O)N2c2ccc(Br)cc2)c1 (stereo not shown) [Compound 68, 1,3-bis(4-bromophenyl)-4-(3-ethylphenyl)-4-hydroxy-5-methylimidazolidin-2-one]
< 1	CCc1cccc(C2(O)[C@H](C)N(c3ccc(Br)cc3)C(=O)N2c2ccc(Br)cc2)c1 (stereo partly drawn) [Compound 68-1, (5S)-1,3-bis(4-bromophenyl)-4-(3-ethylphenyl)-4-hydroxy-5-methylimidazolidin-2-one]
< 1	CCc1cccc(C2(O)[C@@H](C)N(c3ccc(Br)cc3)C(=O)N2c2ccc(Br)cc2)c1 (stereo partly drawn) [Compound 68-2, (5R)-1,3-bis(4-bromophenyl)-4-(3-ethylphenyl)-4-hydroxy-5-methylimidazolidin-2-one]
< 1	CCc1cccc(C2(O)C(C)N(c3ccc(Cl)cc3)C(=O)N2c2ccc(Cl)cc2)c1 (stereo not shown) [Compound 69, 1,3-bis(4-chlorophenyl)-4-(3-ethylphenyl)-4-hydroxy-5-methylimidazolidin-2-one]
< 1	CCc1cccc(C2(O)[C@H](C)N(c3ccc(Cl)cc3)C(=O)N2c2ccc(Cl)cc2)c1 (stereo partly drawn) [Compound 69-1, (5S)-1,3-bis(4-chlorophenyl)-4-(3-ethylphenyl)-4-hydroxy-5-methylimidazolidin-2-one]
< 1	CCc1cccc(C2(O)[C@@H](C)N(c3ccc(Cl)cc3)C(=O)N2c2ccc(Cl)cc2)c1 (stereo partly drawn) [Compound 69-2, (5R)-1,3-bis(4-chlorophenyl)-4-(3-ethylphenyl)-4-hydroxy-5-methylimidazolidin-2-one]
< 1	O=c1n(-c2ccc(Cl)cc2)c(-c2cccc(OC(F)F)c2)c(C2CC2)n1-c1ccc(Cl)cc1 [Compound 70, 1,3-bis(4-chlorophenyl)-4-cyclopropyl-5-(3-(difluoromethoxy)phenyl)-1,3-dihydro-2H-imidazol-2-one]
< 1	COc1cccc(C2(O)[C@H](C)N(c3ccc(Br)cc3)C(=O)N2c2ccc(Br)cc2)c1 (stereo partly drawn) [Compound 71-1, (5S)-1,3-bis(4-bromophenyl)-4-hydroxy-4-(3-methoxyphenyl)-5-methylimidazolidin-2-one]
< 1	COc1cccc(C2(O)[C@@H](C)N(c3ccc(Br)cc3)C(=O)N2c2ccc(Br)cc2)c1 (stereo partly drawn) [Compound 71-2, (5R)-1,3-bis(4-bromophenyl)-4-hydroxy-4-(3-methoxyphenyl)-5-methylimidazolidin-2-one]
< 1	N#Cc1cccc(C2(O)N(c3ccc(Cl)cc3)C(=O)N(c3ccc(Cl)cc3)C23CCC3)c1 (stereo not shown) [Compound 72, 3-(5,7-bis(4-chlorophenyl)-8-hydroxy-6-oxo-5,7-diazaspiro[3.4]octan-8-yl)benzonitrile]
< 1	CC1N(c2ccc(Br)cc2)C(=O)N(c2ccc(Br)cc2)C1(O)c1cccc(Cl)c1 (stereo not shown) [Compound 73, 1,3-bis(4-bromophenyl)-4-(3-chlorophenyl)-4-hydroxy-5-methylimidazolidin-2-one]
< 1	C[C@@H]1N(c2ccc(Br)cc2)C(=O)N(c2ccc(Br)cc2)C1(O)c1cccc(Cl)c1 (stereo partly drawn) [Compound 73-1, (5S)-1,3-bis(4-bromophenyl)-4-(3-chlorophenyl)-4-hydroxy-5-methylimidazolidin-2-one]

SMILES	IC50 [µM]
CCCC1N(c2ccc(Br)cc2)C(=O)N(c2ccc(Br)cc2)C1(O)c1ccccc1 (stereo not shown) [Compound 51]	< 1
